Laboratory results from ChEMBL document CHEMBL3227983, “N-Acetimidoyl- and N-formimidoylthienamycin derivatives: antipseudomonal beta-lactam antibiotics” (J Med Chem, 1979).

Legend:
[1] = Stability of the compound in amorphous form assessed as compound remaining after 1 month at 60 mg/ml at 23 degC in presence of 0.1 equiv of NaHCO3; format: physicochemical; details: read-out: Stability
[2] = tested on: Staphylococcus aureus; test: Antibacterial activity against penicillin-sensitive Staphylococcus aureus MB2985 at 25 ug/disk; format: functional; details: read-out: DIZ
[3] = Stability of the compound in amorphous form in deionized water assessed as time at which 90% of initial UV-absorbance remains at 60 mg/ml at 23 degC; format: physicochemical; details: buffer
[4] = tested on: Escherichia coli; test: Antibacterial activity against penicillin-resistant Escherichia coli MB2964 at 25 ug/disk; format: functional; details: read-out: DIZ
[5] = tested on: Pseudomonas aeruginosa; test: Antibacterial activity against penicillin-sensitive Pseudomonas aeruginosa MB2835 at 25 ug/disk; format: functional; details: read-out: DIZ
[6] = tested on: Staphylococcus aureus; test: Antibacterial activity against penicillin-resistant Staphylococcus aureus MB2314 at 25 ug/disk; format: functional; details: read-out: DIZ
[7] = tested on: Escherichia coli; test: Antibacterial activity against penicillin-sensitive Escherichia coli MB2482 at 25 ug/disk; format: functional; details: read-out: DIZ
[8] = tested on: Enterobacter cloacae; test: Antibacterial activity against penicillin-resistant Enterobacter cloacae MB2646 at 25 ug/disk; format: functional; details: read-out: DIZ
[9] = tested on: Enterobacter cloacae; test: Antibacterial activity against penicillin-sensitive Enterobacter cloacae MB2647 at 25 ug/disk; format: functional; details: read-out: DIZ
[10] = Stability of the compound in amorphous form in 1 M PO4 assessed as time at which 90% of initial UV-absorbance remains at 60 mg/ml at pH 7 at 23 degC; format: physicochemical; details: buffer
[11] = tested on: Pseudomonas aeruginosa; test: Antibacterial activity against penicillin-resistant Pseudomonas aeruginosa MB3350 at 25 ug/disk; format: functional; details: read-out: DIZ
[12] = Stability of the compound in crystalline form assessed as compound remaining after 6 months at 10 mg/ml at 23 degC in presence of 0.1 equiv of NaHCO3; format: physicochemical; details: read-out: Stability
[13] = Stability of the compound in crystalline form in deionized water assessed as time at which 90% of initial UV-absorbance remains at 10 mg/ml at 23 degC; format: physicochemical; details: buffer
[14] = Stability of the compound in amorphous form assessed as compound remaining after 6 months at 60 mg/ml at 23 degC in presence of 0.1 equiv of NaHCO3; format: physicochemical; details: read-out: Stability
[15] = Drug degradation in crystalline form at 10 mg/ml; format: physicochemical; details: read-out: Drug degradation
[16] = Stability of the compound in amorphous form assessed as compound remaining after 5 months at 60 mg/ml at 23 degC in presence of 0.1 equiv of NaHCO3; format: physicochemical; details: read-out: Stability

Structure (SMILES) | remaining at 730.5 h, 60 mg/ml [1] [%] | zone of inhibition at 25 µg/disc [2] [mm] | Time [3] [h] | zone of inhibition at 25 µg/disc [4] [mm] | zone of inhibition at 25 µg/disc [5] [mm] | zone of inhibition at 25 µg/disc [6] [mm] | zone of inhibition at 25 µg/disc [7] [mm] | zone of inhibition at 25 µg/disc [8] [mm] | zone of inhibition at 25 µg/disc [9] [mm] | Time [10] [h] | zone of inhibition at 25 µg/disc [11] [mm] | remaining at 4383 h, 10 mg/ml [12] [%] | Time [13] [h] | remaining at 4383 h, 60 mg/ml [14] [%] | degraded at 10 mg/ml [15] [%] | remaining at 3652.5 h, 60 mg/ml [16] [%]
C[C@@H](O)[C@H]1C(=O)N2C(C(=O)O)=C(SCCN)C[C@H]12 [THIENAMYCIN] | 80 | 40 | 0.5 | 29 | 26 | 41 | 28.5 | 27 | 25.5 | 0.5 | 26 | – | – | – | – | –
C[C@@H](O)[C@H]1C(=O)N2C(C(=O)O)=C(SCCN=CN)C[C@H]12 [IMIPENEM ANHYDROUS] | – | 40 | 2.5 | 29.5 | 29 | 40.5 | 28.5 | 27.5 | 27 | 0.5 | 29 | 100 | 17 | 80 | – | –
CC(=N)NCCSC1=C(C(=O)O)N2C(=O)[C@H]([C@@H](C)O)[C@H]2C1 | – | 38.5 | 5 | 29.5 | 28 | 40 | 28 | 27 | 27 | 0.5 | 28 | – | – | – | < 1 | 100
